Test results taken from US20250051355A1, “COMPOUNDS, COMPOSITIONS, AND METHODS” (ACONCAGUA BIO, INC., priority 2023, published 2025).

Columns and labels:
[1] = target: human calcitonin receptor (CTR) and RAMP3 (AMY3) (Homo sapiens, UniProt O60896+P30988); assay: Amylin Receptor cAMP Assay II; format: cell-based; settings: COS-7/AMY3 cells, cAMP dynamic 2 kit, read-out: Amylin Receptor cAMP Stimulation Activity: EC50
Summary of the method: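 COS-7 cells stably co-expressing human CTR and RAMP3 (AMY3) were treated with 4-fold serially diluted compounds at 2000 cells/well in HBSS with 20 mM HEPES, 0.5 mM IBMX and 0.1% casein for 30 min at 37 °C. cAMP was measured by HTRF (cAMP-d2 plus anti-cAMP cryptate, 1 h at RT) with reads at 665/615 nm.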

[2] = target: T1, human calcitonin receptor (CTR) (Homo sapiens, UniProt P30988); assay: Calcitonin receptor (CTR) cAMP Assay; format: cell-based; settings: COS7-human CTR Clone #2 cells, cAMP dynamic 2 kit; read-out: Calcitonin Receptor cAMP Stimulation Activity: EC50
T1 construct: expressed in transfected cells; host or cells: COS-7 (COS7-human CTR Clone #2)
T1 sequence (P30988 25-474): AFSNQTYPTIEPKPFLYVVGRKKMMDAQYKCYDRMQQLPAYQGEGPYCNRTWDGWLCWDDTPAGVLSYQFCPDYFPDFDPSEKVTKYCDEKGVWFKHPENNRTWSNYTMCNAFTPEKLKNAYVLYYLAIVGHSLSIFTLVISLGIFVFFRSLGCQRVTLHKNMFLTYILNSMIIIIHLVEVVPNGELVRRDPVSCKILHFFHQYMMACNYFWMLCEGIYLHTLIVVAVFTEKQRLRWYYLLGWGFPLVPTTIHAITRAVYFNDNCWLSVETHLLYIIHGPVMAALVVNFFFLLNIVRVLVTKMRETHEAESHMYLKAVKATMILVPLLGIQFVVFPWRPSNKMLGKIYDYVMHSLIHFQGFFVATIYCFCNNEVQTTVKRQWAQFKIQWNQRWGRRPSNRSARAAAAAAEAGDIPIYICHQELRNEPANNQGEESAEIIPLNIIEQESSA
Summary of the method: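 COS-7 cells stably expressing human CTR (2000 cells/well) treated with 4-fold serially diluted compounds in HBSS/20 mM HEPES/0.5 mM IBMX/0.1% casein, 30 min at 37° C. cAMP quantified by HTRF (cAMP-d2 plus anti-cAMP cryptate, 1 h RT), fluorescence read at 665 and 615 nm.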

Sequence of human calcitonin receptor (CTR) and RAMP3 (AMY3) (O60896 24-148, one chain of several): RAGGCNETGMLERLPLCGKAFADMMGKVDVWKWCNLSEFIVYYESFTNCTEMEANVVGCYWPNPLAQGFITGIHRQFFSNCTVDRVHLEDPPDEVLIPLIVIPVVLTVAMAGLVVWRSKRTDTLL

Structure (SMILES) | EC50 [1] [nM] | EC50 [2] [nM]
Cc1nnc(-c2c(CCC3CCOCC3)nc3c(c2C2CCN(C(=O)Cc4ccc(F)c(F)c4)CC2)S(=O)(=O)CC3C(C)C)o1 (stereo not drawn) [Compound 106, 7-{1-[2-(3,4-difluorophenyl)acetyl]-4-piperidyl}-3-isopropyl-6-(5-methyl-1,3,4-oadiazol-2-yl)-5-[2-(tetrahydro-2H-pyran-4-yl)ethyl]-1λ^6-thia-4-aza-1,1-indandione] | > 100 | 3230
Cc1nnc(-c2c(CCC3CCOCC3)nc3c(c2C2CCN(C(=O)Cc4ccc(F)c(F)c4)C2)S(=O)(=O)CC3C(C)C)o1 (stereo not drawn) [Compound 107, 7-{1-[2-(3,4-difluorophenyl)acetyl]-3-pyrrolidinyl}-3-isopropyl-6-(5-methyl-1,3,4-oxadiazol-2-yl)-5-[2-(tetrahydro-2H-pyran-4-yl)ethyl]-1D′-thia-4-aza-1,1-indandione] | > 100 | 6580
Cc1nnc(-c2c(CCC3CCOCC3)nc3c(c2-c2ccc4c(c2)oc(=O)n4Cc2ccc(C#N)c(F)c2)S(=O)(=O)CC3C(C)C)o1 (stereo not drawn) [Compound 109, 2-fluoro-4-[(6-(3-isopropyl-6-(5-methyl-1,3,4-oxadiazol-2-yl)-1,1-dioxo-5-[2-(tetrahydro-2H-pyran-4-yl)ethyl]-1λ^6-thia-4-aza-7-indanyl}-2-oxo-1,3-benzoxazol-3-yl)methyl]benzonitrile] | 64.8 | 1.51
Cc1nnc(-c2c(CCC3CCOCC3)nc3c(c2-c2ccc4c(ccn4C(C)c4ccc(C#N)c(F)c4)c2)C(=O)N2CCOC[C@@H]32)o1 (stereo partly drawn) [Compound 110, 4-[1-(5-((4aR)-7-(5-methyl-1,3,4-oxadiazol-2-yl)-9-oxo-6-[2-(tetrahydro-2H-pyran-4-yl)ethyl]-1,2,4,4a-tetrahydro-9H-3-oxa-5,9a-diazafluoren-8-yl}-1-indolyl)ethyl]-2-fluorobenzonitrile] | 62.4 | 6.16
Cc1nnc(-c2c(CCC3CCOCC3)nc3c(c2-c2ccc4c(cnn4C(C)c4ccc(C#N)c(F)c4)c2)C(=O)N2CCOC[C@@H]32)o1 (stereo partly drawn) [Compound 111, 4-[1-(5-((4aR)-7-(5-methyl-1,3,4-oxadiazol-2-yl)-9-oxo-6-[2-(tetrahydro-2H-pyran-4-yl)ethyl]-1,2,4,4a-tetrahydro-9H-3-oxa-5,9a-diazafluoren-8-yl}-1H-indazol-1-yl)ethyl]-2-fluorobenzonitrile] | 155 | 11.3
Cc1nnc(-c2c(CCC3CCOC(C)(C)C3)nc3c(c2-c2ccc4c(c2)oc(=O)n4Cc2ccc(C#N)c(F)c2)C(=O)N2CCOC[C@@H]32)o1 (stereo partly drawn) [Compound 112, 4-[(6-((4aR,9aR)-6-[2-(2,2-dimethyltetrahydro-2H-pyran-4-yl)ethyl]-7-(5-methyl-1,3,4-oxadiazol-2-yl)-9-oxo-1,2,4,4a-tetrahydro-9H-3-oxa-5,9a-diazafluoren-8-yl}-2-oxo-1,3-benzoxazol-3-yl)methyl]-2-fluorobenzonitrile] | 124 | 5.3
Cc1nnc(-c2c(CCC3CCOCC3)nc3c(c2-c2ccc4c(c2)oc(=O)n4C(C)c2ccc(C#N)c(F)c2)c(=O)n2n3CCC2)o1 (stereo not drawn) [Compound 114, 2-fluoro-4-[1-(6-(10-(5-methyl-1,3,4-oxadiazol-2-yl)-7-oxo-11-[2-(tetrahydro-2H-pyran-4-yl)ethyl]-2,6,12-triazatricyclo[6.4.0.0^2,6]dodeca-1(12),8,10-trien-9-yl}-2-oxo-1,3-benzoxazol-3-yl)ethyl]benzonitrile] | 135 | 4.15
Cc1nnc(-c2c(CCC3CCOCC3)nc3c(c2-c2ccn4c(Cc5ccc(F)c(F)c5)cnc4c2)S(=O)(=O)CC3C(C)C)o1 (stereo not drawn) [Compound 122, 7-(3-[(3,4-difluorophenyl)methyl]-1,3a-diaza-6-indenyl}-3-isopropyl-6-(5-methyl-1,3,4-oxadiazol-2-yl)-5-[2-(tetrahydro-2H-pyran-4-yl)ethyl]-1λ^6-thia-4-aza-1,1-indandione] | 1540 | 49.2

Next, values leading:

EC50 [1] [nM] | EC50 [2] [nM] | Structure (SMILES)
462 | 42.1 | Cc1nnc(-c2c(CCC3CCOC(C)(C)C3)nc3c(c2-c2cc4ncnc(N[C@@H]5CCc6ncccc65)c4s2)S(=O)(=O)CC3C(C)C)o1 (stereo partly drawn) [Compound 108, N—(R)-4-aza-1-indanyl(2-(5-[2-(2,2-dimethyltetrahydro-2H-pyran-4-yl)ethyl]-3-isopropyl-6-(5-methyl-1,3,4-oxadiazol-2-yl)-1,1-dioxo-1λ^6-thia-4-aza-7-indanyl}-1-thia-4,6-diaza-7-indenyl)amine]
1080 | 95.6 | Cc1nnc(-c2c(CCC3CCOCC3)nc3c(c2-c2cc4ccnc(N[C@@H]5CCc6ncccc65)c4s2)c(=O)n2n3CCC2)o1 [Compound 113, 9-{7-[(R)-4-aza-1-indanylamino]-1-thia-6-aza-2-indenyl}-10-(5-methyl-1,3,4-oxadiazol-2-yl)-11-[2-(tetrahydro-2H-pyran-4-yl)ethyl]-2,6,12-triazatricyclo[6.4.0.0^2,6]dodeca-1(12),8,10-trien-7-one]
305 | 14.5 | Cc1nnc(-c2c(CCC3C4COCC34)nc3c(c2-c2cc4ccnc(N[C@@H]5CCc6ncccc65)c4s2)S(=O)(=O)CC3C(C)C)o1 (stereo partly drawn) [Compound 115, N—(R)-4-aza-1-indanyl(2-[3-isopropyl-6-(5-methyl-1,3,4-oxadiazol-2-yl)-5-(2-(3-oxabicyclo[3.1.0]hex-6-yl)ethyl}-1,1-dioxo-1λ^6-thia-4-aza-7-indanyl]-1-thia-6-aza-7-indenyl}amine]
216 | 5.02 | Cc1nnc(-c2c(CCC34CCC(CC3)OC4)nc3c(c2-c2cc4ccnc(N[C@@H]5CCc6ncccc65)c4s2)S(=O)(=O)CC3C(C)C)o1 (stereo partly drawn) [Compound 116, N—(R)-4-aza-1-indanyl(2-[3-isopropyl-6-(5-methyl-1,3,4-oxadiazol-2-yl)-5-(2-(2-oxabicyclo[2.2.2]oct-4-yl)ethyl}-1,1-dioxo-1λ^6-thia-4-aza-7-indanyl]-1-thia-6-aza-7-indenyl}amine]
257 | 9.93 | CC(C)C1CS(=O)(=O)c2c1nc(CCC1CCOCC1)c(-c1nnc(CN(C)C)o1)c2-c1cc2ccnc(N[C@@H]3CCc4ncccc43)c2s1 (stereo partly drawn) [Compound 117, 7-(7-[(R)-4-aza-1-indanylamino]-1-thia-6-aza-2-indenyl}-6-(5-[(dimethylamino)methyl]-1,3,4-oxadiazol-2-yl}-3-isopropyl-5-[2-(tetrahydro-2H-pyran-4-yl)ethyl]-1λ^8-thia-4-aza-1,1-indandione]
449 | 72.8 | Cc1ccnc(-c2c(CCC3CCOCC3)nc3c(c2-c2cc4ccnc(N[C@@H]5CCc6ncccc65)c4s2)S(=O)(=O)CC3C(C)C)c1 (stereo partly drawn) [Compound 118, N—(R)-4-aza-1-indanyl(2-(3-isopropyl-6-(4-methyl-2-pyridyl)-1,1-dioxo-5-[2-(tetrahydro-2H-pyran-4-yl)ethyl]-11′-thia-4-aza-7-indanyl}-1-thia-6-aza-7-indenyl)amine]
68.3 | 11.6 | CC(C)C1CS(=O)(=O)c2c1nc(CCC1CCOCC1)c(-c1nnc[nH]1)c2-c1cc2ccnc(N[C@@H]3CCc4ncccc43)c2s1 (stereo partly drawn) [Compound 119, 7-(7-(((R)-6,7-dihydro-5H-cyclopenta[b]pyridin-5-yl)amino)thieno[2,3-c]pyridin-2-yl)-3-isopropyl-5-(2-(tetrahydro-2H-pyran-4-yl)ethyl)-6-(4H-1,2,4-triazol-3-yl)-2,3-dihydrothieno[3,2-b]pyridine 1,1-dioxide]
55.3 | 10.2 | CC(C)C1CS(=O)(=O)c2c1nc(CCC1CCOCC1)c(-c1nnc(N)o1)c2-c1cc2ccnc(N[C@@H]3CCc4ncccc43)c2s1 (stereo partly drawn) [Compound 120, 7-{7-[(R)-4-aza-1-indanylamino]-1-thia-6-aza-2-indenyl}-6-(5-amino-1,3,4-oxadiazol-2-yl)-3-isopropyl-5-[2-(tetrahydro-2H-pyran-4-yl)ethyl]-1λ^6-thia-4-aza-1,1-indandione]
272 | 49.2 | COc1noc(-c2c(CCC3CCOCC3)nc3c(c2-c2cc4ccnc(N[C@@H]5CCc6ncccc65)c4s2)S(=O)(=O)CC3C(C)C)n1 (stereo partly drawn) [Compound 121, N—(R)-4-aza-1-indanyl(2-(3-isopropyl-6-(3-methoxy-1,2,4-oxadiazol-5-yl)-1,1-dioxo-5-[2-(tetrahydro-2H-pyran-4-yl)ethyl]-1λ^6-thia-4-aza-7-indanyl}-1-thia-6-aza-7-indenyl)amine]
4380 | 135 | COc1nnc(-c2c(CCC3CCOCC3)nc3c(c2-c2cc4ccnc(N[C@@H]5CCc6ncccc65)c4s2)S(=O)(=O)CC3C(C)C)o1 (stereo partly drawn) [Compound 123, N—(R)-4-aza-1-indanyl(2-(3-isopropyl-6-(5-methoxy-1,3,4-oxadiazol-2-yl)-1,1-dioxo-5-[2-(tetrahydro-2H-pyran-4-yl)ethyl]-1λ^6-thia-4-aza-7-indanyl}-1-thia-6-aza-7-indenyl)amine]
